Where two headings read alike, the source gives them in different places.
Tests used:
[1] = molecular target: T1, menin.FITC-MBM1 complex (terbium chelate-labeled menin) (Homo sapiens, UniProt O00255, F410E/T541A); assay: Menin/MLL homogenous time-resolved fluorescence (HTRF) assay; type: binding
T1 construct: Menin (a.a. 1-610-6×his tag) was labeled with terbium cryptate as follows
T1 sequence (O00255 with tags, fused parts or gaps F410E/T541A): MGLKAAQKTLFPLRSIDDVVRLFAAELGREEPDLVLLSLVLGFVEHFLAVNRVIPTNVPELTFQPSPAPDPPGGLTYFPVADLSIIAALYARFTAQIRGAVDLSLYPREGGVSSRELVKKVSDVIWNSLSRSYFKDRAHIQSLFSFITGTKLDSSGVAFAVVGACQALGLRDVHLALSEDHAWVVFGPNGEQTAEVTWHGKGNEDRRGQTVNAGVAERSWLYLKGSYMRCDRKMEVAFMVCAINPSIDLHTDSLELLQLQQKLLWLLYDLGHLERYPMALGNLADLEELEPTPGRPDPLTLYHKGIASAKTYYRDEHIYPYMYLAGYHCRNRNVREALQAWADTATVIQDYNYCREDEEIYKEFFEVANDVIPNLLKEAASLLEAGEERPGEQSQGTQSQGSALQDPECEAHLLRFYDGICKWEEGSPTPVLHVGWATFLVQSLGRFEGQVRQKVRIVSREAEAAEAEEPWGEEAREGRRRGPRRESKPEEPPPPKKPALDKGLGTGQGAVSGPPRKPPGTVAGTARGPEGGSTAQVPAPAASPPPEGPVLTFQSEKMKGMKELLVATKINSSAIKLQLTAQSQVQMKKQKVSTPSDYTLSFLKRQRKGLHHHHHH
Procedure: 2) Menin/MLL Homogenous Time-Resolved Fluorescence (HTRF) Assay
To an untreated, white 384-well microtiter plate was added 40 nL 200× test compound in DMSO and 4 μL 2× terbium chelate-labeled menin (vide infra for preparation) in assay buffer (40 mM Tris.HCl, pH 7.5, 50 mM NaCl, 1 mM DTT and 0.05% Plutonic F-127). After incubation of test compound and terbium chelate-labeled menin for 5 min at ambient temperature, 4 μL2× FITC-MBM1 peptide (FITC-β-alanine-[…]-NH2) in assay buffer was added, the microtiter plate centrifuged at 1000 rpm for 1 min and the assay mixtures incubated for 15 min at ambient temperature. The relative amount of menin.FITC-MBM1 complex present in an assay mixture is determined by measuring the homogenous time-resolved fluorescence (HTRF) of the terbium/FITC donor/acceptor fluorphore pair using a BMG Pherastar plate reader (ex. 337 nm/terbium em. 490 nm/FITC em. 520 nm) at ambient temperature. The degree of fluorescence resonance energy transfer (the HTRF value) is expressed as the ratio of the fluorescence emission intensities of the FITC and terbium fluorophores (F^em 520 nm/F^em 490 nm). The final concentrations of reagents in the binding assay are 100 pM terbium chelate-labeled menin (location 1) or 600 pM terbium chelate-labeled menin (location 2), 75 nM FITC-MBM1 peptide and 0.5% DMSO in assay buffer. Dose-response titrations of test compounds are conducted using an 11 point, three-fold serial dilution scheme, starting typically at 25 μM (location 1) or starting typically at 10 μM (location 2).
Compound potencies were determined by first calculating % inhibition at each compound concentration according to equation 1:
% inhibition=((HC−LC)−(HTRF^compound−LC))/(HC−LC))*100 (Eqn 1)
Where LC and HC are the HTRF values of the assay in the presence or absence of a saturating concentration of a compound that competes with FITC-MBM1 for binding to menin, and HTRF^compound is the measured HTRF value in the presence of the test compound. HC and LC HTRF values represent an average of at least 16 replicates per plate.
% inhibition=Bottom+(Top−Bottom)/(1+10^((log IC50−log [cmpd])*h)) (Eqn 2)
Where Bottom and Top are the lower and upper asymptotes of the dose-response curve, respectively, IC50 is the concentration of compound that yields 50% inhibition of signal and h is the Hill coefficient.
Preparation of Terbium cryptate labeling of Menin: Menin (a.a. 1-610-6×his tag) was labeled with terbium cryptate as follows. 2 mg of Menin was buffer exchanged into 1× phosphate buffered saline. 16 uM Menin was incubated with 4-fold molar excess NHS-terbium cryptate (Cisbio Bioassays, Bedford, Mass.) for 2 hours at room temperature. The labeled protein was purified away from free label by running the reaction over a Superdex 200 Increase 10/300 GL column at 0.75 ml/min. Peak fractions were collected, aliquoted and frozen at −80° C.

[2] = system: MV-4-11 cells; assay: Proliferation assay A (spheroid assay) MV-4-11; type: cell-based; settings: Homo sapiens, MV4-11, 192 h, 8 d, AUC of confluence against time, absolute IC50, read-out: (3a) Spheroid assay MV-4-11 (IC50(μM)) Assay A
Procedure: (§1) 3a) Proliferation Assay A
(§2) The anti-proliferative effect of menin/MLL protein/protein interaction inhibitor test compounds was assessed in human leukemia cell lines. The cell lines MV-4-11 and MOLM14 harbor MLL translocations and express the MLL fusion proteins MLL-AF4 and MLL-AF9, respectively, as well as the wildtype protein from the second allele. […] K562 was used as a control cell line containing two MLL wildtype alleles in order to exclude compounds that display general cytotoxic effects.
(§3) MV-4-11 and MOLM14 were cultured in RPMI-1640 (Sigma Aldrich) supplemented with 10% fetal bovine serum (HyClone), 2 mM L-glutamine (Sigma Aldrich) and 50 μg/ml gentamycin (Gibco). K562 were propagated in RPMI-1640 (Sigma Aldrich) supplemented with 20% fetal bovine serum (HyClone), 2 mM L-glutamine (Sigma Aldrich) and 50 μg/ml gentamycin (Gibco).
(§4) In order to assess the anti-proliferative effects, 1,500 MV-4-11, 300 MOLM14 or 750 K562 cells were seeded in 200 μl media per well in 96-well round bottom, ultra-low attachment plates (Costar, catalogue number 7007). Cell seeding numbers were chosen based on growth curves to ensure linear growth throughout the experiment. Test compounds were added at different concentrations and the DMSO content was normalized to 0.3%. Cells were incubated for 8 d at 37° C. and 5% CO2. Spheroid like growth was monitored in real-time by live-cell imaging (IncuCyteZOOM, Essenbio, 4× objective) acquiring one image every four hours for 8 d. Confluence (%) as a measure of spheroid size was determined using an integrated analysis tool.
(§5) In order to determine the cumulative effect of the test compounds over time, the area under the curve (AUC) in a plot of confluence against time was calculated. Confluence at the beginning of the experiment (t=0) was used as baseline for the AUC calculation.
(§6) Absolute IC50 values were calculated according to the following procedure:
(§7) % Control=(AUC sample/AUC control)*100
(§8) AUC control=mean AUC of control values (cells without compound/DMSO as vehicle control)
(§9) A non-linear curve fit was applied using the least squares (ordinary) fit method to the plot of % control versus compound concentration. Based on this, the absolute IC50 value (half maximal inhibitory concentration of the test compound causing an anti-proliferative effect of 50% relative to the vehicle control) was calculated.

[3] = system: MOLM14 cells; assay: Proliferation assay A (spheroid assay) MOLM14; type: cell-based; settings: Homo sapiens, MOLM-14, 192 h, 8 d, AUC of confluence against time, absolute IC50, read-out: (3a) Spheroid assay MOLM14 (IC50(μM)) Assay A
Procedure: as §1, §2, §3, §4, §5, §6, §7, §8, §9

[4] = system: MV-4-11 cells; assay: Proliferation assay B (spheroid assay) MV-4-11; type: cell-based; settings: Homo sapiens, MV4-11, 192 h, confluence at day 8, read-out: (3b) Spheroid assay MV-4-11 (IC50(μM)) Assay B
Procedure: (§10) 3b) Proliferation Assay B
as §2
MV-4-11 and MOLM14 were cultured in RPMI-1640 (Sigma Aldrich) supplemented with 10% fetal bovine serum (HyClone), 2 mM L-glutamine (Sigma Aldrich) and 50 μg/ml gentamycin (Gibco). […]
In order to assess the anti-proliferative effects, 1,500 MV-4-11, 300 MOLM14 cells or 750 K562 cells were seeded in 200 μl media per well in 96-well round bottom, ultra-low attachment plates (Costar, catalogue number 7007). […] Spheroid like growth was measured in real-time by live-cell imaging (IncuCyteZOOM, Essenbio, 4× objective) acquiring images at day 8. Confluence (%) as a measure of spheroid size was determined using an integrated analysis tool.
In order to determine the effect of the test compounds over time, the confluence in each well as a measure of spheroid size, was calculated. […]
Absolute IC50 values were calculated as percent change in confluence as follows: […]

[5] = system: MOLM14 cells; assay: Proliferation assay B (spheroid assay) MOLM14; type: cell-based, human; settings: Homo sapiens, MOLM-14, 192 h, confluence at day 8, read-out: (3b) Spheroid assay MOLM14 (IC50(μM)) Assay B
Procedure: as §10, §2, §3
as §4, with “MOLM14 cells” for “MOLM14”, “measured” for “monitored”, “images at day 8.” for “one image every four hours for 8 d.”
In order to determine the effect of the test compounds over time, the confluence in each well as a measure of spheroid size, was calculated. Confluence […] at the beginning of the experiment (t=0) was used as baseline for the calculation.
Absolute IC50 values were calculated as percent change in confluence as follows:
LC=Low Control: cells treated with 1 μM of the cytotoxic agent staurosporin
HC=High Control: Mean confluence (%) (DMSO treated cells)
Effect=100−(100*(Sample−LC)/(HC−LC))
To determine the IC50 a curve is fitted to the plot of % Effect vs Log 10 compound concentration using a sigmoidal fit with a variable slope and fixing the maximum to 100% and the minimum to 0%.

[6] = location 1, read-out: (2) location 1 Menin HTRF assay (IC50 (nM))
[7] = location 2, read-out: (2) location 2 Menin HTRF assay (IC50 (nM))

Compound FC(F)(F)Cc1cc2c(N3CC4(CCC(NCc5ccccc5)C4)C3)ncnc2s1 (single isomer, unassigned) [Compound 46] has an IC50 [1, 6] of 22 nM, an IC50 [2] of 0.31 µM and an IC50 [3] of 1.87 µM.

For O=c1[nH]c2ccc(CN[C@H]3CCC4(C3)CN(c3ncnc5sc(CC(F)(F)F)cc35)C4)cc2o1 (single isomer, unassigned) [Compound 56], the IC50 [1, 7] was 5.1 nM, the IC50 [2] was 0.45 µM and the IC50 [3] was 2 µM.

In the case of O=c1[nH]c2cc(CN[C@H]3CCC4(C3)CN(c3ncnc5sc(CC(F)(F)F)cc35)C4)ccc2o1 (single isomer, unassigned) [Compound 58], the IC50 [3] was 0.14 µM.

Work on FC(F)(F)Cc1cc2c(N3CC4(CC[C@H](NCc5ccccc5)C4)C3)ncnc2s1 [Compound 45] yielded an IC50 [1, 6] of 20.4 nM, an IC50 [2] of 0.41 µM and an IC50 [3] of 2.36 µM.

N#CCn1c(=O)[nH]c2cc(CNC3CCC4(C3)CN(c3ncnc5sc(CC(F)(F)F)cc35)C4)ccc21 (stereo not shown) [Compound 99] gave an IC50 [1, 7] of 1.1 nM, an IC50 [4] of 0.03 µM and an IC50 [5] of 0.19 µM.

In the case of FC(F)(F)Cc1cc2c(N3CCC4(CCC(Nc5ccc(-c6cc[nH]n6)cc5)C4)C3)ncnc2s1 (stereo not shown) [Compound 138], the IC50 [1, 7] was 8.8 nM, the IC50 [2] was 3.92 µM and the IC50 [3] was > 3.75 µM.

Reference: US20230039917A1, “EXO-AZA SPIRO INHIBITORS OF MENIN-MLL INTERACTION” (Janssen Pharmaceutica NV, priority 2017, published 2023)
